Measurements taken from ChEMBL document CHEMBL4346705, “(±)-trans-Dihydronarciclasine and (±)-trans-dihydrolycoricidine analogues modified in their ring A: Evaluation of their anticancer activity and a SAR study” (2019).

Columns and labels:
Assay type in all cases: functional
SK-MEL-2 = experiment: Antiproliferative activity against human SK-MEL-2 cells assessed as cell viability at 10^-5 M incubated for 48 hrs by sulforhodamine B assay relative to control; conditions: SK-MEL-2, 48 h, read-out: Activity
HCC 2998 = experiment: Antiproliferative activity against human HCC2998 cells assessed as cell viability at 10^-5 M incubated for 48 hrs by sulforhodamine B assay relative to control; conditions: HCC 2998, 48 h, read-out: Activity
Hs-578T = experiment: Antiproliferative activity against human Hs 578T cells assessed as cell viability at 10^-5 M incubated for 48 hrs by sulforhodamine B assay relative to control; conditions: read-out: Activity
TK-10 = experiment: Antiproliferative activity against human TK10 cells assessed as cell viability at 10^-5 M incubated for 48 hrs by sulforhodamine B assay relative to control; conditions: TK-10, 48 h, read-out: Activity
Malme-3M = experiment: Antiproliferative activity against human MALME-3M cells assessed as cell viability at 10^-5 M incubated for 48 hrs by sulforhodamine B assay relative to control; conditions: read-out: Activity
T47D = experiment: Antiproliferative activity against human T47D cells assessed as cell viability at 10^-5 M incubated for 48 hrs by sulforhodamine B assay relative to control; conditions: read-out: Activity
OVCAR-5 = experiment: Antiproliferative activity against human OVCAR5 cells assessed as cell viability at 10^-5 M incubated for 48 hrs by sulforhodamine B assay relative to control; conditions: OVCAR-5, 48 h, read-out: Activity
OVCAR-4 = experiment: Antiproliferative activity against human OVCAR4 cells assessed as cell viability at 10^-5 M incubated for 48 hrs by sulforhodamine B assay relative to control; conditions: OVCAR-4, 48 h, read-out: Activity
DU-145 = experiment: Antiproliferative activity against human DU145 cells assessed as cell viability at 10^-5 M incubated for 48 hrs by sulforhodamine B assay relative to control; conditions: DU-145, 48 h, read-out: Activity
RXF 393 = experiment: Antiproliferative activity against human RXF393 cells assessed as cell viability at 10^-5 M incubated for 48 hrs by sulforhodamine B assay relative to control; conditions: RXF 393, 48 h, read-out: Activity
M14 = experiment: Antiproliferative activity against human M14 cells assessed as cell viability at 10^-5 M incubated for 48 hrs by sulforhodamine B assay relative to control; conditions: M14, 48 h, read-out: Activity
A498 = experiment: Antiproliferative activity against human A498 cells assessed as cell viability at 10^-5 M incubated for 48 hrs by sulforhodamine B assay relative to control; conditions: A498, 48 h, read-out: Activity
LOX IMVI = experiment: Antiproliferative activity against human LOXIMVI cells assessed as cell viability at 10^-5 M incubated for 48 hrs by sulforhodamine B assay relative to control; conditions: read-out: Activity
SR = experiment: Antiproliferative activity against human SR cells assessed as cell viability at 10^-5 M incubated for 48 hrs by sulforhodamine B assay relative to control; conditions: read-out: Activity
EKVX = experiment: Antiproliferative activity against human EKVX cells assessed as cell viability at 10^-5 M incubated for 48 hrs by sulforhodamine B assay relative to control; conditions: read-out: Activity
NCI-H460 = experiment: Antiproliferative activity against human NCI-H460 cells assessed as cell viability at 10^-5 M incubated for 48 hrs by sulforhodamine B assay relative to control; conditions: NCI-H460, 48 h, read-out: Activity
IGROV-1 = experiment: Antiproliferative activity against human IGROV1 cells assessed as cell viability at 10^-5 M incubated for 48 hrs by sulforhodamine B assay relative to control; conditions: IGROV-1, 48 h, read-out: Activity
SK-OV-3 = experiment: Antiproliferative activity against human SKOV3 cells assessed as cell viability at 10^-5 M incubated for 48 hrs by sulforhodamine B assay relative to control; conditions: SK-OV-3, 48 h, read-out: Activity
NCI-H226 = experiment: Antiproliferative activity against human NCI-H226 cells assessed as cell viability at 10^-5 M incubated for 48 hrs by sulforhodamine B assay relative to control; conditions: NCI-H226, 48 h, read-out: Activity
CCRF-CEM = experiment: Antiproliferative activity against human CCRF-CEM cells assessed as cell viability at 10^-5 M incubated for 48 hrs by sulforhodamine B assay relative to control; conditions: read-out: Activity
SK-MEL-5 = experiment: Antiproliferative activity against human SK-MEL-5 cells assessed as cell viability at 10^-5 M incubated for 48 hrs by sulforhodamine B assay relative to control; conditions: SK-MEL-5, 48 h, read-out: Activity
U-251 = experiment: Antiproliferative activity against human U251 cells assessed as cell viability at 10^-5 M incubated for 48 hrs by sulforhodamine B assay relative to control; conditions: U-251, 48 h, read-out: Activity
NCI-H322M = experiment: Antiproliferative activity against human NCI-H322M cells assessed as cell viability at 10^-5 M incubated for 48 hrs by sulforhodamine B assay relative to control; conditions: read-out: Activity
BT-549 = experiment: Antiproliferative activity against human BT549 cells assessed as cell viability at 10^-5 M incubated for 48 hrs by sulforhodamine B assay relative to control; conditions: BT-549, 48 h, read-out: Activity
MCF7 = experiment: Antiproliferative activity against human MCF7 cells assessed as cell viability at 10^-5 M incubated for 48 hrs by sulforhodamine B assay relative to control; conditions: MCF7, 48 h, read-out: Activity
SW-620 = experiment: Antiproliferative activity against human SW620 cells assessed as cell viability at 10^-5 M incubated for 48 hrs by sulforhodamine B assay relative to control; conditions: SW-620, 48 h, read-out: Activity
SNB-19 = experiment: Antiproliferative activity against human SNB19 cells assessed as cell viability at 10^-5 M incubated for 48 hrs by sulforhodamine B assay relative to control; conditions: SNB-19, 48 h, read-out: Activity
SF-295 = experiment: Antiproliferative activity against human SF295 cells assessed as cell viability at 10^-5 M incubated for 48 hrs by sulforhodamine B assay relative to control; conditions: SF-295, 48 h, read-out: Activity
SF-268 = experiment: Antiproliferative activity against human SF268 cells assessed as cell viability at 10^-5 M incubated for 48 hrs by sulforhodamine B assay relative to control; conditions: SF-268, 48 h, read-out: Activity
MDA-MB-468 = experiment: Antiproliferative activity against human MDA-MB-468 cells assessed as cell viability at 10^-5 M incubated for 48 hrs by sulforhodamine B assay relative to control; conditions: MDA-MB-468, 48 h, read-out: Activity
SF-539 = experiment: Antiproliferative activity against human SF539 cells assessed as cell viability at 10^-5 M incubated for 48 hrs by sulforhodamine B assay relative to control; conditions: SF-539, 48 h, read-out: Activity
MOLT-4 = experiment: Antiproliferative activity against human MOLT4 cells assessed as cell viability at 10^-5 M incubated for 48 hrs by sulforhodamine B assay relative to control; conditions: MOLT-4, 48 h, read-out: Activity

SMILES | viability at 10 µM (SK-MEL-2) [%] | viability at 10 µM (HCC 2998) [%] | viability at 10 µM (Hs-578T) [%] | viability at 10 µM (TK-10) [%] | viability at 10 µM (Malme-3M) [%] | viability at 10 µM (T47D) [%] | viability at 10 µM (OVCAR-5) [%] | viability at 10 µM (OVCAR-4) [%] | viability at 10 µM (DU-145) [%] | viability at 10 µM (RXF 393) [%] | viability at 10 µM (M14) [%] | viability at 10 µM (A498) [%] | viability at 10 µM (LOX IMVI) [%] | viability at 10 µM (SR) [%] | viability at 10 µM (EKVX) [%] | viability at 10 µM (NCI-H460) [%] | viability at 10 µM (IGROV-1) [%] | viability at 10 µM (SK-OV-3) [%] | viability at 10 µM (NCI-H226) [%] | viability at 10 µM (CCRF-CEM) [%] | further results
O=C1NC2C(CC(O)C(O)C2O)c2cc3c(c(O)c21)OCO3 (racemic) | -63.6 | -22.8 | -14.2 | -12.6 | -48.7 | -8.46 | -13.4 | -23.7 | -19.1 | -37.3 | -81.7 | -53.4 | -48.8 | 6.14 | -26.3 | -15.1 | -7.85 | -11.2 | -38.3 | 2.84 | viability at 10 µM (SK-MEL-5): -72.7%; viability at 10 µM (U-251): -10.5%; viability at 10 µM (NCI-H322M): -14.7%; viability at 10 µM (BT-549): -12.5%; viability at 10 µM (MCF7): 1.73%; viability at 10 µM (SW-620): -0.05%; viability at 10 µM (SNB-19): -8.68%; viability at 10 µM (SF-295): -11.5%; viability at 10 µM (SF-268): -4.43%; viability at 10 µM (MDA-MB-468): -45.8%; viability at 10 µM (SF-539): -29.7%; viability at 10 µM (MOLT-4): -6.14%
COc1cc2c(c3c1OCCO3)C(=O)NC1C2CC(O)C(O)C1O (racemic) | 110 | 99.9 | 99.8 | 98 | 103 | 87.9 | 103 | 108 | 103 | 106 | 104 | 100 | 101 | 97.1 | 103 | 106 | 107 | 104 | 95.7 | 103 | viability at 10 µM (SK-MEL-5): 101%; viability at 10 µM (U-251): 100%; viability at 10 µM (NCI-H322M): 97.3%; viability at 10 µM (BT-549): 98.3%; viability at 10 µM (MCF7): 97.3%; viability at 10 µM (SW-620): 107%; viability at 10 µM (SNB-19): 100%; viability at 10 µM (SF-295): 104%; viability at 10 µM (SF-268): 98.3%; viability at 10 µM (MDA-MB-468): 99.5%; viability at 10 µM (SF-539): 105%; viability at 10 µM (MOLT-4): 105%
O=C1NC2C(CC(O)C(O)C2O)c2cc3c(c(O)c21)OCCO3 (racemic) | -48.7 | -46.2 | -9.44 | -11.9 | -23.8 | -15.8 | 3 | -8.78 | -2.39 | -24.2 | -45.8 | -29.7 | -41.1 | -2.37 | -14.3 | 1.26 | -16.7 | -10.9 | -11.3 | -6.07 | viability at 10 µM (SK-MEL-5): -52.1%; viability at 10 µM (U-251): -14.9%; viability at 10 µM (NCI-H322M): -24.3%; viability at 10 µM (BT-549): -17.5%; viability at 10 µM (MCF7): -13.3%; viability at 10 µM (SW-620): 4.85%; viability at 10 µM (SNB-19): -10.4%; viability at 10 µM (SF-295): -14.9%; viability at 10 µM (SF-268): -0.71%; viability at 10 µM (MDA-MB-468): -27.2%; viability at 10 µM (SF-539): -24.1%; viability at 10 µM (MOLT-4): -0.8%
COc1c2c(cc3c1C(=O)NC1C3CC(O)C(O)C1O)OCCO2 (racemic) | 100 | 106 | 96.2 | 95.7 | 106 | 84.9 | 105 | 105 | 107 | 102 | 105 | 104 | 101 | 92.1 | 98.2 | 109 | 109 | 98.6 | 92.7 | 105 | viability at 10 µM (SK-MEL-5): 99%; viability at 10 µM (U-251): 100%; viability at 10 µM (NCI-H322M): 93.5%; viability at 10 µM (BT-549): 99.5%; viability at 10 µM (MCF7): 93.9%; viability at 10 µM (SW-620): 104%; viability at 10 µM (SNB-19): 102%; viability at 10 µM (SF-295): 99.6%; viability at 10 µM (SF-268): 97.9%; viability at 10 µM (MDA-MB-468): 93.1%; viability at 10 µM (SF-539): 106%; viability at 10 µM (MOLT-4): 99.6%
O=C1NC2C(CC(O)C(O)C2O)c2cc3c(cc21)OCCO3 (racemic) | 109 | 109 | 96.9 | 103 | 105 | 104 | 107 | 107 | 114 | 116 | 98.9 | 108 | 97.8 | 107 | 97.4 | 107 | 103 | 103 | 97.7 | 106 | viability at 10 µM (SK-MEL-5): 102%; viability at 10 µM (U-251): 101%; viability at 10 µM (NCI-H322M): 104%; viability at 10 µM (BT-549): 98.3%; viability at 10 µM (MCF7): 98.6%; viability at 10 µM (SW-620): 104%; viability at 10 µM (SNB-19): 102%; viability at 10 µM (SF-295): 101%; viability at 10 µM (SF-268): 101%; viability at 10 µM (MDA-MB-468): 107%; viability at 10 µM (SF-539): 101%; viability at 10 µM (MOLT-4): 103%
